Results from PMC2873862 (Journal of neuroimmunology, 2009).

What was measured:
Assay in all cases: radioligand displacement
Tachykinin NK1 = Tachykinin NK1 (Homo sapiens, UniProt P25103); type: binding
Opiate σ(OP1) = Opiate σ(OP1) (Homo sapiens, UniProt P41143); type: binding
Bradykinin B1 = Bradykinin B1 (Homo sapiens, UniProt P46663); type: binding; details: vs [3H]des Arg10 Kallidin; bound from single concentration […]
Dopamine D3 = Dopamine D3 (Homo sapiens, UniProt P35462); type: binding
Leukotriene CysLT1 = Leukotriene CysLT1 (Homo sapiens, UniProt Q9Y271); type: binding
Serotonin 5-HT1_5A = Serotonin 5-HT1_5A (Homo sapiens, UniProt P47898); type: binding
Serotonin 5-HT1_5A, sequence (P47898 whole entry): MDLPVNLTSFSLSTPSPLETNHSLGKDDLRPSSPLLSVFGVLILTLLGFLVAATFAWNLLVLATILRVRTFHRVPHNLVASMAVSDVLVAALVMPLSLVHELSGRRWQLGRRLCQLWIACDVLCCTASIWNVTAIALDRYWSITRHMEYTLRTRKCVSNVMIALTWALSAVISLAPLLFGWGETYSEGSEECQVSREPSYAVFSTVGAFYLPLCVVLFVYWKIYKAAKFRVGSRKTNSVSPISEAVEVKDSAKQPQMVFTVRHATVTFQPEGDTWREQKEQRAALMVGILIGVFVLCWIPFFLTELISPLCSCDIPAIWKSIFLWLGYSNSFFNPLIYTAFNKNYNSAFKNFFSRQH

Neurotensin NT1 = Neurotensin NT1 (Homo sapiens, UniProt P30989); type: binding
Neuropeptide Y1 = Neuropeptide Y1 (Homo sapiens, UniProt P25929); type: binding
Serotonin 5-HT1A = Serotonin 5-HT1A (Homo sapiens, UniProt P08908); type: binding
Serotonin 5-HT1A, sequence (P08908 whole entry): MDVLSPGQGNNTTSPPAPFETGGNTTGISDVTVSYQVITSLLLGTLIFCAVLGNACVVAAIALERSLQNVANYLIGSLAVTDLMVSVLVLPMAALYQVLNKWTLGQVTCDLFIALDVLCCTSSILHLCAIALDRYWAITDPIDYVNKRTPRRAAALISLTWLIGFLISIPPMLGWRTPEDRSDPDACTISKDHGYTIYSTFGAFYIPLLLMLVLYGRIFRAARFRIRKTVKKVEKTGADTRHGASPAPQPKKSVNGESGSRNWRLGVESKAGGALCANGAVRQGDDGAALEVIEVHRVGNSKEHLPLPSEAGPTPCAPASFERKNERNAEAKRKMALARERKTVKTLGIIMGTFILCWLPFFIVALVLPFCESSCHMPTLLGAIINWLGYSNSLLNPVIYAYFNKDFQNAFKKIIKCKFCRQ

Adrenergic β1 = Adrenergic β1 (Homo sapiens, UniProt P08588); type: binding
Adrenergic β1, sequence (P08588 whole entry): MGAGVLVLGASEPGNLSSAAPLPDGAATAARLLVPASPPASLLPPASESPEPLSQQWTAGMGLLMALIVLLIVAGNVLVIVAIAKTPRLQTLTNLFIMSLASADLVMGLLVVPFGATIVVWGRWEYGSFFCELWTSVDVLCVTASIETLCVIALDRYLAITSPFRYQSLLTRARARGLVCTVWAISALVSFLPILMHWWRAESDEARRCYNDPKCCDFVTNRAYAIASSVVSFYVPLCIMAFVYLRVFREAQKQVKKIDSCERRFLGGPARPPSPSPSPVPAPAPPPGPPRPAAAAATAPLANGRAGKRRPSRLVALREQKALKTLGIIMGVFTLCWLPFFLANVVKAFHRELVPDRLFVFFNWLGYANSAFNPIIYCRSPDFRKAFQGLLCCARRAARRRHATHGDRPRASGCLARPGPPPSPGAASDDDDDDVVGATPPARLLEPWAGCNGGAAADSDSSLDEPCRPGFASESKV

Cannabinoid CB2 = Cannabinoid CB2 (Homo sapiens, UniProt P34972); type: binding
Cannabinoid CB2, sequence (P34972 whole entry): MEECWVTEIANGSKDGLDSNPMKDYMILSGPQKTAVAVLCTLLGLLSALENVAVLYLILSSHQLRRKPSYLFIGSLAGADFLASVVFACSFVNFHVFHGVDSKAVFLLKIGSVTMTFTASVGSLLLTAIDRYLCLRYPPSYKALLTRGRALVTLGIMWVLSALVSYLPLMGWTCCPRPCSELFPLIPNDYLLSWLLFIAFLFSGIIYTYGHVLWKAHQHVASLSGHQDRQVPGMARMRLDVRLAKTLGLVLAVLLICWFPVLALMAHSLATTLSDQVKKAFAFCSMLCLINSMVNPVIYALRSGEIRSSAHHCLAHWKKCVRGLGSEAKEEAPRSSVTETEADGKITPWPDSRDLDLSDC

Angiotensin AT1 = Angiotensin AT1 (Homo sapiens, UniProt P30556); type: binding
Histamine H1 = Histamine H1 (Homo sapiens, UniProt P35367); type: binding
Histamine H1, sequence (P35367 whole entry): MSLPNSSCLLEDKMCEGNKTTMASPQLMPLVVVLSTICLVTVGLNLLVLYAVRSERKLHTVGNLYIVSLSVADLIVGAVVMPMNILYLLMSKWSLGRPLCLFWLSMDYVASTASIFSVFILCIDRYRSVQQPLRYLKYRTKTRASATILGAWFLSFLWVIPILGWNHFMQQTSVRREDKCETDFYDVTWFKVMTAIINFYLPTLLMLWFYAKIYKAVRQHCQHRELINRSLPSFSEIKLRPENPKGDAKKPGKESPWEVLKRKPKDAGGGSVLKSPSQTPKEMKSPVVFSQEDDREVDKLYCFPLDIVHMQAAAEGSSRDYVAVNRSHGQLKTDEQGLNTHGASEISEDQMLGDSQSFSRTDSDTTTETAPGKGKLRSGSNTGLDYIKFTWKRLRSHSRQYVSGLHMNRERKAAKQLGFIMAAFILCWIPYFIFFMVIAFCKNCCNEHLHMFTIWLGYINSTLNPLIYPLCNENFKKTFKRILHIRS

Estrogen ERβ = Estrogen ERβ (Homo sapiens, UniProt Q92731)
Adenosine A1 = Adenosine A1 (Homo sapiens, UniProt P30542); type: binding
Adenosine A1, sequence (P30542 whole entry): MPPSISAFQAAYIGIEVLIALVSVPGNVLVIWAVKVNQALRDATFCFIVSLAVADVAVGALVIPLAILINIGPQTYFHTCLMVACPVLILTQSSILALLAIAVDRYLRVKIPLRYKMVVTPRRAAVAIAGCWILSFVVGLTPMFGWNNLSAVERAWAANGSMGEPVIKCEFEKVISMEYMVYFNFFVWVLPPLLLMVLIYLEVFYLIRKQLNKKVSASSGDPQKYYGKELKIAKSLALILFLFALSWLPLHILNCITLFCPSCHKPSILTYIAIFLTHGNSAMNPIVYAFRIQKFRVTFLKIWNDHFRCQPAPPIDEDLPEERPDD

Somatostatin sst1 = Somatostatin sst1 (Homo sapiens, UniProt P30872)
Muscarinic M3 = Muscarinic M3 (Homo sapiens, UniProt P20309); type: binding
Muscarinic M3, sequence (P20309 whole entry): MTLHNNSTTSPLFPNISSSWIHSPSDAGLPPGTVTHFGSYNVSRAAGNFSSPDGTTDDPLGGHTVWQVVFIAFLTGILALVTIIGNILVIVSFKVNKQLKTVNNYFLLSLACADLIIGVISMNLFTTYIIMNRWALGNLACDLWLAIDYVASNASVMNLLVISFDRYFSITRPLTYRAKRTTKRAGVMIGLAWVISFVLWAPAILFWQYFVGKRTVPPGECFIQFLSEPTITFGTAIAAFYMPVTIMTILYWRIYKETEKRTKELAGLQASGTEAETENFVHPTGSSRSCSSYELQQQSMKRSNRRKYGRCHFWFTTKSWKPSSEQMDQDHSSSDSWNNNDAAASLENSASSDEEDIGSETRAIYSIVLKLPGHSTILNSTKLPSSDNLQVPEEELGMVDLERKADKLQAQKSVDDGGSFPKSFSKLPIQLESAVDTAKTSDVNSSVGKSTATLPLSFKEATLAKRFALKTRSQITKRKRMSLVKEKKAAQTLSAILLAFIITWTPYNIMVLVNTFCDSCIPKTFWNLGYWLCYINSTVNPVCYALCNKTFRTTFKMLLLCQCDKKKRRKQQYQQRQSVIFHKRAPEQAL

Chemokine CCR5 = Chemokine CCR5 (Homo sapiens, UniProt P51681); type: binding
Chemokine CCR5, sequence (P51681 whole entry): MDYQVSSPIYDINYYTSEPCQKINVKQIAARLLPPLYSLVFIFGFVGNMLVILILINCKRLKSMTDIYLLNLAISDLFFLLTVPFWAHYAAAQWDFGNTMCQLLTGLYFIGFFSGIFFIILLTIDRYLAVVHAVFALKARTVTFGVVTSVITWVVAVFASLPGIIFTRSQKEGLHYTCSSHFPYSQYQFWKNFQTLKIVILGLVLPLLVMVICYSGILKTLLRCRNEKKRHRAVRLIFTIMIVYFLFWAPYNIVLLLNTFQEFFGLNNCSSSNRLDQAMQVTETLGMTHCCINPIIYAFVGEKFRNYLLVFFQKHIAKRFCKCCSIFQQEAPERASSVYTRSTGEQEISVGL

Endothelin ETA = Endothelin ETA (Homo sapiens, UniProt P25101); type: binding
Muscarinic M1 = Muscarinic M1 (Homo sapiens, UniProt P11229); type: binding
Muscarinic M1, sequence (P11229 whole entry): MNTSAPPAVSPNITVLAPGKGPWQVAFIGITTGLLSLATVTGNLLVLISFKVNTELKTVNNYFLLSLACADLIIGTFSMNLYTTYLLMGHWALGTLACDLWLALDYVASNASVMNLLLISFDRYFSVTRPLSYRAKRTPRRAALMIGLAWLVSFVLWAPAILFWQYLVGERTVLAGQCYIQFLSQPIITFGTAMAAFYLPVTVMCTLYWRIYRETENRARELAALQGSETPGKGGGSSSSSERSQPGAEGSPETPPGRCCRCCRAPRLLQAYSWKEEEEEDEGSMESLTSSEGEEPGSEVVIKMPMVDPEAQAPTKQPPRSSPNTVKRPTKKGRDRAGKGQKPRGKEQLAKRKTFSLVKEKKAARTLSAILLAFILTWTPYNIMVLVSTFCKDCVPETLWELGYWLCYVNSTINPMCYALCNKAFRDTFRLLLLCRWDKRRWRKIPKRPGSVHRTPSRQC

Chemokine CCR1 = Chemokine CCR1 (Homo sapiens, UniProt P32246); type: binding
Chemokine CCR1, sequence (P32246 whole entry): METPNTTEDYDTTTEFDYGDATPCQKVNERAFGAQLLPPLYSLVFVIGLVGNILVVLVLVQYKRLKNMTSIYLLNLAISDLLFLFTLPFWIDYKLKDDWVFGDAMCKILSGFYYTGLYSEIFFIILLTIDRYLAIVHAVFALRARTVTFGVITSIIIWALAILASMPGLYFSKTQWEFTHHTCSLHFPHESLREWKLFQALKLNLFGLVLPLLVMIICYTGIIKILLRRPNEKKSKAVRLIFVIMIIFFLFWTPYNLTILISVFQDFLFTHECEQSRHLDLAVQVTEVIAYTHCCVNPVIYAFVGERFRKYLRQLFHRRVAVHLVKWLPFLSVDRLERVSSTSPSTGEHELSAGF

Dopamine D2L = Dopamine D2L (Homo sapiens, UniProt P14416); type: binding
Adrenergic α1D = Adrenergic α1D (Homo sapiens, UniProt P25100); type: binding

Measured: IC50

Bradykinin B1, sequence (P46663 whole entry): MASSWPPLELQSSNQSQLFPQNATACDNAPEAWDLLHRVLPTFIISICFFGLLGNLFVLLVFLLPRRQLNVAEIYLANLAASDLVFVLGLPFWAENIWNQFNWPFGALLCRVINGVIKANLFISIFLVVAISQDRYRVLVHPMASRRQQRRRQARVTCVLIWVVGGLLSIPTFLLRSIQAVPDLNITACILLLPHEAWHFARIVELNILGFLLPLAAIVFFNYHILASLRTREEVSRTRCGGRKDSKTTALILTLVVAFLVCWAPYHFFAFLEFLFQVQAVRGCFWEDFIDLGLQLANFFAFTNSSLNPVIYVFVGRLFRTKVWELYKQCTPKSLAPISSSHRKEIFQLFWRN
Dopamine D3, sequence (P35462 whole entry): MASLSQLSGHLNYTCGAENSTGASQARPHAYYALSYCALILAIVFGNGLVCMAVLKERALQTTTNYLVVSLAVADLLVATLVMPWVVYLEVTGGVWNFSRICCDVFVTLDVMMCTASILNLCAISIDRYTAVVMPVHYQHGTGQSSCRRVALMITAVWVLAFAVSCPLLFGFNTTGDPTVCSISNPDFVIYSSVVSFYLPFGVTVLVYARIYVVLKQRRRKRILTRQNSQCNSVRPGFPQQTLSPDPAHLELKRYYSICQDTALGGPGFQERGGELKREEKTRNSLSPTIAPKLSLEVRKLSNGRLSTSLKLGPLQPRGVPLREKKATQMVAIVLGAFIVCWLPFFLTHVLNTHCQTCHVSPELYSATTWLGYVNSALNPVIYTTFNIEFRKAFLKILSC

CC(=O)c1ccc2c(c1)C1C=CCC1C(c1cc3c(cc1Br)OCO3)N2 (centres unmarked) [G-1, 1-[4-(6-bromobenzo[1,3]dioxol-5-yl)-3a,4,5,9b-tetrahydro-3H-cyclopenta[c]quinolin-8-yl]-ethanone]
> 10 µM: all assays above
